Data from US11208386B2, “Inhibitors of protein arginine deiminases (PADs) and methods of preparation and use thereof” (University of Massachusetts, priority 2016, dated 2021).

Legend:
Type in all cases: biochemical
PAD1 = target: T1, PAD1 (Homo sapiens, UniProt Q9ULC6); assay: Inactivation kinetics, PAD1; settings: for kinact/KI: a: single kobs determined, b: from a linear fit; for Fold PAD1 Selectivity: kinact/KI relative to least inhibited isozyme (1.0)
T1 construct: made in house
T1 sequence (Q9ULC6 1-663): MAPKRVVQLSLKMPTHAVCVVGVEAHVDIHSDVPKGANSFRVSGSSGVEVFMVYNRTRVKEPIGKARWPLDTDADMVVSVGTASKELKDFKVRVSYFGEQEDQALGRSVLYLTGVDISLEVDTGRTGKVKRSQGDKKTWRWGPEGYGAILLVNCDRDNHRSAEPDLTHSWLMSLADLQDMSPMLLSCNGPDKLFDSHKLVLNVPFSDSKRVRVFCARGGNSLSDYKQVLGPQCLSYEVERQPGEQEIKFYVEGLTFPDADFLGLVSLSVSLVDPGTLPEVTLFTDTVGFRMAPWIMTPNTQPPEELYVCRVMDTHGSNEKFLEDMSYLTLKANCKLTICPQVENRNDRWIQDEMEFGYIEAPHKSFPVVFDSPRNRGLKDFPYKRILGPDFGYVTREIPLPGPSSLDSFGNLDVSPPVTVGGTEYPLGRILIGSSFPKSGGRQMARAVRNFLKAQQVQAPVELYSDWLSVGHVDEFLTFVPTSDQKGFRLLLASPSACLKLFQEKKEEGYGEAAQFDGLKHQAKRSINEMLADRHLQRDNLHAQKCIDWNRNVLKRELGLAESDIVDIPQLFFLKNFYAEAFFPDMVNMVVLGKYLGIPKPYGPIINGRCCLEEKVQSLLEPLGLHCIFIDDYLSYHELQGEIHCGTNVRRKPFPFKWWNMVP
Protocol: (§1) Inactivation kinetic parameters were determined by incubating PAD1, 2, or 4 (2.0 μM) or PAD3 (5.0 μM) in a pre-warmed (10 min; 37° C.) inactivation mixture (50 mM HEPES, 10 mM CaCl2, and 2 mM DTT, pH 7.6, with a final volume of 60 μL) containing various concentrations of inhibitor. Aliquots were removed at various time points and added to a pre-warmed (10 min, 37° C.) reaction mixture (50 mM HEPES, 50 mM NaCl, 10 mM CaC2, 2 mM DTT, and 10 mM BAEE or 10 mM BAA in the case of PAD3; pH 7.6). After 15 min, reactions were quenched in liquid nitrogen and citrulline production quantified using the COLDER assay. […] In Vitro Labeling of PADs with “Clickable” Probes BB-F-Yne (5u), BB-Cl-Yne (5v) and BIFYne (5w)

PAD2 = target: T2, PAD2 (Homo sapiens, UniProt Q9Y2J8); assay: Inactivation kinetics, PAD2; settings: for kinact/KI: a: single kobs determined, b: from a linear fit, other footnotes: from kinact and KI; for Fold PAD2 Selectivity: kinact/KI relative to least inhibited isozyme (1.0); for Ki / kinact: PAD2, table footnote
T2 construct: made in house
Protocol: as §1

PAD3 = target: T3, PAD3 (Homo sapiens, UniProt Q9ULW8); assay: Inactivation kinetics, PAD3; settings: for kinact/KI: a: single kobs determined; for Fold PAD3 Selectivity: kinact/KI relative to least inhibited isozyme (1.0)
T3 construct: made in house
T3 sequence (Q9ULW8 1-664): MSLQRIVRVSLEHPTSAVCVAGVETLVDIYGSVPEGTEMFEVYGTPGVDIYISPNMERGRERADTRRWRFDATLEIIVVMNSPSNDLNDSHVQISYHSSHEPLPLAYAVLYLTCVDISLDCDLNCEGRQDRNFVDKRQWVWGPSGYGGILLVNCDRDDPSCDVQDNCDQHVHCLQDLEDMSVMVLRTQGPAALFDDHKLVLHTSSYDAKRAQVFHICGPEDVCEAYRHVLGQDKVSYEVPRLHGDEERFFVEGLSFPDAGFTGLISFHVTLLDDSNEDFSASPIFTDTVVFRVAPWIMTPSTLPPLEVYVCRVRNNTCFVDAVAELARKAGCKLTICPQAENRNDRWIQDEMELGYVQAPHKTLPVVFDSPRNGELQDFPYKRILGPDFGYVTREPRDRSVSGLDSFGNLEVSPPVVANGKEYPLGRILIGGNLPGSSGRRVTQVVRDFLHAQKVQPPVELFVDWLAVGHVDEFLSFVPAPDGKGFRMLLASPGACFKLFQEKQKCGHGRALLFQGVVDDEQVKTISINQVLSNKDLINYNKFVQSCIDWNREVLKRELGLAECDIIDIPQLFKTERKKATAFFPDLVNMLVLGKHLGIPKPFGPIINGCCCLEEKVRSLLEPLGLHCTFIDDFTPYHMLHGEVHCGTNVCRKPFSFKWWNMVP
Protocol: as §1

PAD4 = target: T4, PAD4 (Homo sapiens, UniProt Q9UM07); assay: Inactivation kinetics, PAD4; settings: for kinact/KI: a: single kobs determined, b: from a linear fit; for Fold PAD4 Selectivity: kinact/KI relative to least inhibited isozyme (1.0)
T4 construct: made in house
Protocol: as §1

T4 sequence (Q9UM07 whole entry): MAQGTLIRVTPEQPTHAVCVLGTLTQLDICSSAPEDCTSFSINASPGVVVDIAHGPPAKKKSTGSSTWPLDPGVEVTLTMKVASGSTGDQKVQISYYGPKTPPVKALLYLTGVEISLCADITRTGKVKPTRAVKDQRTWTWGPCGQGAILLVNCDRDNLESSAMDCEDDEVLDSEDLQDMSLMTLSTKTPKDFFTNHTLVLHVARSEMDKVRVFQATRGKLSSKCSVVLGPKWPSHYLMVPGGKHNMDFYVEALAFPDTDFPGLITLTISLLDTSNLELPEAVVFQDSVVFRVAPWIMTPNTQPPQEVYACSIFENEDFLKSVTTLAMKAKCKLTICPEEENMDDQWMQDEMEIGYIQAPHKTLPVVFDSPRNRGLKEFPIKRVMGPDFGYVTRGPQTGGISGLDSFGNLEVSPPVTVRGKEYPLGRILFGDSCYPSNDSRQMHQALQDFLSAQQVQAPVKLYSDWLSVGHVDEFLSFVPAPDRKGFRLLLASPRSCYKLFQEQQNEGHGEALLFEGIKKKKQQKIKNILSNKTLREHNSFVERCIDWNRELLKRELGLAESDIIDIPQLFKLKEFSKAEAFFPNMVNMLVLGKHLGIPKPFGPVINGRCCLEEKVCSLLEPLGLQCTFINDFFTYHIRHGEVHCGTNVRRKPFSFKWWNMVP
T2 sequence (Q9Y2J8 whole entry): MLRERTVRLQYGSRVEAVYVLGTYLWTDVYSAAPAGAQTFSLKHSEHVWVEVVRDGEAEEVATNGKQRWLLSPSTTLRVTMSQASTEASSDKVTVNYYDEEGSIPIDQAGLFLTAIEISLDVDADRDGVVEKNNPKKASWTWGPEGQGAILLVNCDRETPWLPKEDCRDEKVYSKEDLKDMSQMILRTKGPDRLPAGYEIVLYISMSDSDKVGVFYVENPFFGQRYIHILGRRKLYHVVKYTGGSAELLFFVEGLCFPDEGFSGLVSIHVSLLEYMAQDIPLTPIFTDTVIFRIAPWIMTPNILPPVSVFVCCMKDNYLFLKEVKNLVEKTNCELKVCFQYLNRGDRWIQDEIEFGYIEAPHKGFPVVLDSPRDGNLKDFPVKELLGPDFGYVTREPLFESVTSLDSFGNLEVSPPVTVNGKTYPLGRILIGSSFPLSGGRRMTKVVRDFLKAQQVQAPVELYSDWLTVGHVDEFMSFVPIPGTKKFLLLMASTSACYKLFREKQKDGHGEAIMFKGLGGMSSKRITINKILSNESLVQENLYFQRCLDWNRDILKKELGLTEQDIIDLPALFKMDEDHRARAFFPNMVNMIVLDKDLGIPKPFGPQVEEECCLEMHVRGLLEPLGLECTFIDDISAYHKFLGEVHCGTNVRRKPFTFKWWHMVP

| kinact/KI (PAD1) [M⁻¹ s⁻¹] | Fold PAD1 Selectivity (PAD1) [fold] | kinact/KI (PAD2) [M⁻¹ s⁻¹] | Fold PAD2 Selectivity (PAD2) [fold] | kinact/KI (PAD3) [M⁻¹ s⁻¹] | Fold PAD3 Selectivity (PAD3) [fold] | kinact/KI (PAD4) [M⁻¹ s⁻¹] | Fold PAD4 Selectivity (PAD4) [fold] | Ki (PAD2) [µM] | kinact (PAD2) [s⁻¹] | SMILES |
| --- | --- | --- | --- | --- | --- | --- | --- | --- | --- | --- |
| 817 | 68 | 452 | 38 | 45 | 3.8 | 12 | 1.0 |  |  | CC(C)n1c([C@H](CCCNC(=N)CCl)NC(=O)c2ccccc2C(=O)O)nc2ccccc21 [Compound 6h, N1-(2-Carboxyl)benzoyl-N5-(2-chloro-1-iminoethyl)-1-(1-isopropyl-benzo[d]imidazol-2-yl)-L-ornithine] |
| 627 | 6.2 | 340 | 3.4 | 113 | 1.1 | 101 | 1.0 |  |  | COc1cccc2c1nc([C@H](CCCNC(=N)CF)NC(=O)c1ccccc1C(=O)O)n2C [Compound 6i, N1-(2-Carboxyl)benzoyl-N5-(2-fluoro-1-iminoethyl)-1-(4-methoxy-1-methyl-benzo[d]imidazol-2-yl)-L-ornithine] |
| 1120 | 7.0 | 308 | 1.9 | 160 | 1.0 | 235 | 1.5 |  |  | COc1cccc2c1nc([C@H](CCCNC(=N)CCl)NC(=O)c1ccccc1C(=O)O)n2C [Compound 6j] |
| 1290 | 24 | 177 | 3.3 | 53.3 | 1.0 | 552 | 10 | 210 | 0.0373 | N=C(CF)NCCC[C@H](NC(=O)c1cccc2c1C(=O)NC2)c1nc2ccccc2[nH]1 [Compound 7a, N1-(3-oxoisoindoline)benzol-N5-(2-fluoro-1-iminoethyl)-1-(1H-benzo[d]imidazol-2-yl)-L-ornithine] |
| 3010 | 6.5 | 1090 | 2.3 | 467 | 1.0 | 968 | 2.1 |  |  | N=C(CCl)NCCC[C@H](NC(=O)c1cccc2c1C(=O)NC2)c1nc2ccccc2[nH]1 [Compound 7b, N1-(3-oxoisoindoline)benzol-N5-(2-chloro-1-iminoethyl)-1-(1H-benzo[d]imidazol-2-yl)-L-ornithine] |
| 1140 | 25 | 413 | 8.9 | 46.7 | 1.0 | 48.5 | 1.0 |  |  | Cn1c([C@H](CCCNC(=N)CF)NC(=O)c2cccc3c2C(=O)NC3)nc2ccccc21 [Compound 7c] |
| 2430 | 61 | 1220 | 3.1 | 808 | 2.0 | 398 | 1.0 |  |  | Cn1c([C@H](CCCNC(=N)CCl)NC(=O)c2cccc3c2C(=O)NC3)nc2ccccc21 [Compound 7d, N1-(3-oxoisoindoline)benzol-N5-(2-chloro-1-iminoethyl)-1-(1-methyl-benzo[d]imidazol-2-yl)-L-ornithine] |
| 675 | 37 | 1030 | 56 | 18.3 | 1.0 | 31.7 | 1.7 | 32.9 | 0.0337 | CCn1c([C@H](CCCNC(=N)CF)NC(=O)c2cccc3c2C(=O)NC3)nc2ccccc21 [Compound 7e, N1-(3-oxoisoindoline)benzoyl-N5-(2-fluoro-1-iminoethyl)-1-(1-ethyl-benzo[d]imidazol-2-yl)-L-ornithine] |
| 2200 | 10 | 1010 | 4.8 | 377 | 1.8 | 210 | 1.0 |  |  | CCn1c([C@H](CCCNC(=N)CCl)NC(=O)c2cccc3c2C(=O)NC3)nc2ccccc21 [Compound 7f, N1-(3-oxoisoindoline)benzol-N5-(2-chloro-1-iminoethyl)-1-(1-ethyl-benzo[d]imidazol-2-yl)-L-ornithine] |
| 104 | 12 | 172 | 20 | 8.5 | 1.0 | 20.5 | 2.4 |  |  | CC(C)n1c([C@H](CCCNC(=N)CF)NC(=O)c2cccc3c2C(=O)NC3)nc2ccccc21 [Compound 7g, N1-(3-oxoisoindoline)benzol-N5-(2-fluoro-1-iminoethyl)-1-(1-isopropyl-benzo[d]imidazol-2-yl)-L-ornithine] |
| 960 | 27 | 282 | 8.0 | 112 | 3.2 | 35 | 1.0 |  |  | CC(C)n1c([C@H](CCCNC(=N)CCl)NC(=O)c2cccc3c2C(=O)NC3)nc2ccccc21 [Compound 7h, N1-(3-oxoisoindoline)benzol-N5-(2-chloro-1-iminoethyl)-1-(1-isopropyl-benzo[d]imidazol-2-yl)-L-ornithine] |
| 1530 | 42 | 292 | 8.0 | 138 | 3.8 | 36.3 | 1.0 |  |  | COc1cccc2[nH]c([C@H](CCCNC(=N)CF)NC(=O)c3cccc4c3C(=O)NC4)nc12 [Compound 7i, N1-(3-oxoisoindoline)benzol-N5-(2-fluoro-1-iminoethyl)-1-(4-methoxy-1H-benzo[d]imidazol-2-yl)-L-omithine] |
| 2180 | 30 | 802 | 11 | 502 | 6.9 | 72.3 | 1.0 |  |  | COc1cccc2[nH]c([C@H](CCCNC(=N)CCl)NC(=O)c3cccc4c3C(=O)NC4)nc12 [Compound 7j, N1-(3-oxoisoindoline)benzoyl-N5-(2-chloro-1-iminoethyl)-1-(4-methoxy-1H-benzo[d]imidazol-2-yl)-L-ornithine] |
| 2150 | 29 | 3500 | 47 | 73.8 | 1.0 | 238 | 3.2 | 16.5 | 0.0578 | COc1cccc2c1nc([C@H](CCCNC(=N)CF)NC(=O)c1cccc3c1C(=O)NC3)n2C [Compound 7k, N1-(3-oxoisoindoline)benzoyl-N5-(2-fluoro-1-iminoethyl)-1-(4-methoxy-1-methyl-benzo[d]imidazol-2-yl)-L-ornithine] |
